# Measured values published in ChEMBL document CHEMBL4725311, “Discovery of potent, orally bioavailable in vivo efficacious antagonists of the TLR7/8 pathway” (Bioorg Med Chem Lett, 2020).
# pIC50: −log10 of the molar value.
# Assays:
# [1] = biological target: T1, Toll-like receptor 7 (Mus musculus, UniProt P58681); assay: Antagonist activity at TLR7 in mouse splenocytes assessed as inhibition of ssRNA40-induced IL6 production; format: cell-based, Splenocyte
# T1 sequence (P58681 whole entry): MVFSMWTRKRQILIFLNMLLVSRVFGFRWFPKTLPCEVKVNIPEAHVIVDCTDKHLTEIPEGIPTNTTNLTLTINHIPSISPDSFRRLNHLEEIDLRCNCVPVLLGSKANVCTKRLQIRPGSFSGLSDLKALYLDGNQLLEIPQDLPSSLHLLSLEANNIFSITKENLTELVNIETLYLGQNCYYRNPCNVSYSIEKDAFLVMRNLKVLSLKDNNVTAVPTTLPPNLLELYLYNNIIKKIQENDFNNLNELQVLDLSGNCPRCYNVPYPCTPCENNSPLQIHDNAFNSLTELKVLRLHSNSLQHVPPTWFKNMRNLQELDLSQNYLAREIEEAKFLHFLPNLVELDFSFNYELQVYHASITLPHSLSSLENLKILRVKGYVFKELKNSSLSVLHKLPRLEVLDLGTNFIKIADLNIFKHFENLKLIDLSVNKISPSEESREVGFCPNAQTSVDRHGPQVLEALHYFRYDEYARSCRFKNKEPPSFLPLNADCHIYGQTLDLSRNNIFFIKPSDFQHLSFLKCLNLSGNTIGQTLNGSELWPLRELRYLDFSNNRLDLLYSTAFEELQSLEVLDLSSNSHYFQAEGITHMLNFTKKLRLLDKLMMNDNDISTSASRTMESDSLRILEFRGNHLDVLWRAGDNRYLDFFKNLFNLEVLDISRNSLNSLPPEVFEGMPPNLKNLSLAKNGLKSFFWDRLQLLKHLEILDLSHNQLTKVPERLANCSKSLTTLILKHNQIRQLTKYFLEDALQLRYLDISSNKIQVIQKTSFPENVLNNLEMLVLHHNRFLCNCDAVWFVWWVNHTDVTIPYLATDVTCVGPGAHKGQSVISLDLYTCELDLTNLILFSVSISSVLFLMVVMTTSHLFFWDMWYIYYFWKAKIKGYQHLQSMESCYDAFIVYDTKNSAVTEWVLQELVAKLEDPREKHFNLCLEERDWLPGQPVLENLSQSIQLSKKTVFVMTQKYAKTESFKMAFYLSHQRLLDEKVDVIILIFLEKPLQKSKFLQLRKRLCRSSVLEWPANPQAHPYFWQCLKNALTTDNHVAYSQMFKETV
# [2] = biological target: T2, Toll-like receptor 9 (Mus musculus, UniProt Q9EQU3); assay: Antagonist activity at TLR9 in mouse splenocytes assessed as inhibition of CpG1585-induced IL6 production; format: cell-based, Splenocyte
# T2 sequence (Q9EQU3 whole entry): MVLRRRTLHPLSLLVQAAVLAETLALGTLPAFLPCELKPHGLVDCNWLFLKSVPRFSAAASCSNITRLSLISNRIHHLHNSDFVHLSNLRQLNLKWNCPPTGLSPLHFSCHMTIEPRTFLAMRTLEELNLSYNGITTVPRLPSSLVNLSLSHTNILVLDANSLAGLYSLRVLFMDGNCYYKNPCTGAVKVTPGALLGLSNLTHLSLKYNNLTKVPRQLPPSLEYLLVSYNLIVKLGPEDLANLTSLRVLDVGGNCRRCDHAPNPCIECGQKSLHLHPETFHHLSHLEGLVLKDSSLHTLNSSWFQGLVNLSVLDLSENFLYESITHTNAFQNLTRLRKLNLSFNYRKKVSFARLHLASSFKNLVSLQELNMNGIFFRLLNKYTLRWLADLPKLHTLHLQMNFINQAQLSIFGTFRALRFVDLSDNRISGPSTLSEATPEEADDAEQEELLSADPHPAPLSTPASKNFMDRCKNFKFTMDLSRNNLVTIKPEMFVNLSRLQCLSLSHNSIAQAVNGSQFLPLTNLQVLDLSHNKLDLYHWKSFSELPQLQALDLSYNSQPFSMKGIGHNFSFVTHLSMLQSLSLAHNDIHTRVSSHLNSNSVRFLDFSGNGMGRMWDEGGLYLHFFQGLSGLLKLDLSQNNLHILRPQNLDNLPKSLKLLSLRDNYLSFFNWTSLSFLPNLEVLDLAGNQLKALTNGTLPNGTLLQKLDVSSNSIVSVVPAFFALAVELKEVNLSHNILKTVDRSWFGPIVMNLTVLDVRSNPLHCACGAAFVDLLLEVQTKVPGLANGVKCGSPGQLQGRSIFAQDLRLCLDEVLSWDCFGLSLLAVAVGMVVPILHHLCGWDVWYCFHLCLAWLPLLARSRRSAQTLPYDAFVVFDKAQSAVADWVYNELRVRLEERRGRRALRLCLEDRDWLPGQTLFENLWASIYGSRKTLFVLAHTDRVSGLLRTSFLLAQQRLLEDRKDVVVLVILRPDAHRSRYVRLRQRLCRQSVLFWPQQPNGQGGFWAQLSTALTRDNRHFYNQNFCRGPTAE
# [3] = AUC in BALB/c mouse at 20 mg/kg, po; format: ADME, organism-based; set-up: dose 20 mg/kg; details: in vivo
# [4] = Oral bioavailability in BALB/c mouse at 20 mg/kg; format: ADME, organism-based; details: in vivo
# [5] = biological target: T3, Toll-like receptor 9 (Homo sapiens, UniProt Q9NR96); assay: Antagonist activity at TLR9 in human PBMC assessed as inhibition of ODN2216-induced IFNalpha production; format: tissue-based
# T3 sequence (Q9NR96 whole entry): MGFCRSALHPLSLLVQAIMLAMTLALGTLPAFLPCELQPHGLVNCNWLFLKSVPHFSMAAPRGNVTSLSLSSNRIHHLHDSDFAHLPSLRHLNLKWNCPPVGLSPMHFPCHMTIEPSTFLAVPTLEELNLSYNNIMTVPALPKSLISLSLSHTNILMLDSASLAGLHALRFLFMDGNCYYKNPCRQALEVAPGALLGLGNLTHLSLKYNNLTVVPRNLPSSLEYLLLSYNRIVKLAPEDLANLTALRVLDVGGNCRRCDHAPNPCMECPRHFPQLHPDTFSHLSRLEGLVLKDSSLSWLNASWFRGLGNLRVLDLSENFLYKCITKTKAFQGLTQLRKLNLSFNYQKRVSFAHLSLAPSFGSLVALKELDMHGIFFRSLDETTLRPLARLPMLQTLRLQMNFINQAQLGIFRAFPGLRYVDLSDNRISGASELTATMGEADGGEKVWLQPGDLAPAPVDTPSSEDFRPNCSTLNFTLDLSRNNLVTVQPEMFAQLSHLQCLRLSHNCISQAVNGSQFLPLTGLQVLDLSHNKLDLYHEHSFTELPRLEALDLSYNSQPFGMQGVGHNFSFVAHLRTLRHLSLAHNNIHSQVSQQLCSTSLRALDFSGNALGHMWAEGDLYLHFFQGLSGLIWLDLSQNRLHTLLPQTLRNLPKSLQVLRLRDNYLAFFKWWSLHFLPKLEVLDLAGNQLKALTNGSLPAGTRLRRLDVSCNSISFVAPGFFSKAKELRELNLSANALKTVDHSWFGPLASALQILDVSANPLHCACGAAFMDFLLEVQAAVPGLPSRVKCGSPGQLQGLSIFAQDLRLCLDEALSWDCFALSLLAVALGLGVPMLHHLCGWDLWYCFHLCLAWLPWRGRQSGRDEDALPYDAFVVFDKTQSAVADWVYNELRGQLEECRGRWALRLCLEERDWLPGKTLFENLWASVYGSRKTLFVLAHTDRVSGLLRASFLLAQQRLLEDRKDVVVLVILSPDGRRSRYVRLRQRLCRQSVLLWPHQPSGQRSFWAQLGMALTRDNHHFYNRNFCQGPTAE
# [6] = Cmax in BALB/c mouse at 20 mg/kg, po; format: ADME, organism-based; set-up: route oral, dose 20 mg/kg; details: in vivo
# [7] = Terminal half life in BALB/c mouse at 5 mg/kg, iv; format: ADME, organism-based; details: in vivo, read-out: beta t1/2 (converted)
# [8] = biological target: T4, Toll-like receptor 8 (Homo sapiens, UniProt Q9NR97); assay: Antagonist activity at TLR8 in human THP-1 cells assessed as inhibition of resiquimod-induced TNFalpha production; format: cell-based
# T4 sequence (Q9NR97 whole entry): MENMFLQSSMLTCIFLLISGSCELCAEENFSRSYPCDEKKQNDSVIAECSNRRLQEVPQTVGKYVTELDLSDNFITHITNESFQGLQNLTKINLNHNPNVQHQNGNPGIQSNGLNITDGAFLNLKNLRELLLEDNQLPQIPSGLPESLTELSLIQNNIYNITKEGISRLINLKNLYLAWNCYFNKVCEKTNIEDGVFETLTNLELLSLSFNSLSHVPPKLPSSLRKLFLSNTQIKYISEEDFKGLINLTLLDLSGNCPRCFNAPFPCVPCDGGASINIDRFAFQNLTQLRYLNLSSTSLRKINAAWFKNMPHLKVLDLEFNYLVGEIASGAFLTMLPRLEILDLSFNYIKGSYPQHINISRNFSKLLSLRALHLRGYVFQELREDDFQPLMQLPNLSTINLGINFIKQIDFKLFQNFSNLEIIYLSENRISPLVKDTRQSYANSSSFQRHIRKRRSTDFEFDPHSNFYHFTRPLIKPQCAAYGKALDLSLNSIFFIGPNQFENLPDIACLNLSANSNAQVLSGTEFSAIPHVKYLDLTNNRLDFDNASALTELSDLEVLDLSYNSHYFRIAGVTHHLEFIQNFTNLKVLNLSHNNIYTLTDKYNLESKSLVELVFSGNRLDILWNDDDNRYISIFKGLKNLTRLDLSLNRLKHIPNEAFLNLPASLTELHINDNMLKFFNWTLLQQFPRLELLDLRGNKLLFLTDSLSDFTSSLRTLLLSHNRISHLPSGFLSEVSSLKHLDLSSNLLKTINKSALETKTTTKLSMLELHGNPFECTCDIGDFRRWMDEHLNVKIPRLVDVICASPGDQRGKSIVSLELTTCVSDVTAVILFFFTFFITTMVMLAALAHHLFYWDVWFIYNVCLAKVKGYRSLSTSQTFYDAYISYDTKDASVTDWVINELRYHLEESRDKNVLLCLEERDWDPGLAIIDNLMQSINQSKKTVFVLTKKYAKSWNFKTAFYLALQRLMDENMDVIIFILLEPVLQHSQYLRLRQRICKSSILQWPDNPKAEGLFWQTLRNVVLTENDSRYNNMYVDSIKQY
# [9] = Volume of distribution at steady state in BALB/c mouse at 5 mg/kg, iv; format: ADME, organism-based; details: in vivo, read-out: Vdss
# [10] = Clearance in BALB/c mouse at 5 mg/kg, iv; format: ADME, organism-based; details: in vivo
# [11] = biological target: T1, Toll-like receptor 7; assay: Antagonist activity at TLR7 in mouse P4H1 cells assessed as inhibition of imiquimod-induced IL6 production; format: cell-based
# [12] = Drug uptake in 129Sv mouse at 30 mg/kg, ip measured after 2 hrs; format: ADME, organism-based; details: in vivo, read-out: Drug uptake
# [13] = Drug uptake in 129Sv mouse at 5 mg/kg, po measured after 2 hrs; format: ADME, organism-based; details: in vivo, read-out: Drug uptake
SMILES,pIC50 [1],pIC50 [2],AUC [3],bioavailability [4],pIC50 [5],Cmax [6],half-life [7],pIC50 [8],Vd [9],clearance [10],pIC50 [11],concentration at 2 h [12],concentration at 2 h [13]
Cc1cc(-c2ccnc3[nH]ncc23)cnc1OCC12CCC(N)(CC1)CC2,8.40,5.92,29.6 µM·h,75%,6.00,3230 nM,4 h,> 9.00,5.1 L/kg,23 mL/min/kg,,,
Cn1ncc2c(-c3ccc(OCC45CCC(N)(CC4)CC5)c(F)c3)nc(N)nc21,6.52,6.10,,,5.43,,,,,,,,
Cc1cc(-c2ccnc3[nH]ncc23)cnc1OCC12CCC(O)(CC1)CC2,7.26,< 5.00,36.3 µM·h,43%,< 5.30,4370 nM,4.7 h,,3.1 L/kg,11 mL/min/kg,,,
CN1CCN(CCCOc2ccc(-c3nn(C)c4nc(N)ncc34)cc2F)CC1,5.70,5.70,,,,,,,,,6.77,,
Cn1nc(-c2ccc(OCC34CCC(O)(CC3)CC4)c(F)c2)c2cnc(N)nc21,5.92,5.55,,,5.28,,,,,,,,
Cn1nc(-c2ccc(OCC34CCC(N)(CC3)CC4)c(F)c2)c2cnc(N)nc21,7.42,6.08,3.05 µM·h,36%,5.57,506 nM,4.1 h,,15 L/kg,98 mL/min/kg,,,
Cn1nc(-c2ccc(OCCCC3CCNCC3)c(F)c2)c2cnc(N)nc21,7.01,5.89,,0%,5.64,,5.9 h,,29 L/kg,165 mL/min/kg,,1500 nM,
Cn1nc(-c2ccc(OCC3CC4(CNC4)C3)c(F)c2)c2cnc(N)nc21,,5.92,,,5.19,,,,,,,,
Cc1cc(-c2cnc(OCC34CCC(N)(CC3)CC4)c(C)c2)c2cnn(C)c2n1,,,28.9 µM·h,150%,,1400 nM,4.9 h,,13.8 L/kg,44 mL/min/kg,,,
Cn1nc(-c2ccc(OCC3CCNCC3)c(F)c2)c2cnc(N)nc21,6.66,5.70,,,5.47,,,,,,,,
Cl.Cn1nc(-c2ccc(OCC34CCC(N)(CC3)CC4)c(F)c2)c2cnc(N)nc21,,,,,,,,,,,,,300 nM
Cn1nc(-c2ccc(OC[C@H]3CC[C@@H](N)CC3)c(F)c2)c2cnc(N)nc21,6.82,5.92,,,5.66,,,,,,,,
Cn1nc(-c2ccc(OC[C@H]3CC[C@H](N)CC3)c(F)c2)c2cnc(N)nc21,6.96,5.72,,,5.85,,,,,,,,
Cc1cc(-c2nn(C)c3nc(N)ncc23)cnc1OCC12CCC(N)(CC1)CC2,,,2.98 µM·h,34%,5.48,354 nM,4.1 h,,15 L/kg,96 mL/min/kg,,,
Cc1cc(-c2ccc(OCC34CCC(N)(CC3)CC4)c(F)c2)c2cnc(N)nn12,7.03,6.34,,,5.47,,,,,,,,
Cn1nc(-c2ccc(OCC3C[C@H]4CC[C@@H](C3)N4)c(F)c2)c2cnc(N)nc21 (stereo partly specified),6.92,5.92,,,5.92,,,,,,,,
